{
  "source": "ChEMBL document CHEMBL5506056",
  "about": "“Discovery of Novel Azaindoles as Potent and Selective PI3Kδ Inhibitors for Treatment of Multiple Sclerosis” (J Med Chem, 2024)",
  "key": {"[1]": {"biological_target": "Phosphatidylinositol 4,5-bisphosphate 3-kinase catalytic subunit alpha isoform (Homo sapiens, UniProt P42336)", "sequence (P42336 whole entry, canonical isoform)": "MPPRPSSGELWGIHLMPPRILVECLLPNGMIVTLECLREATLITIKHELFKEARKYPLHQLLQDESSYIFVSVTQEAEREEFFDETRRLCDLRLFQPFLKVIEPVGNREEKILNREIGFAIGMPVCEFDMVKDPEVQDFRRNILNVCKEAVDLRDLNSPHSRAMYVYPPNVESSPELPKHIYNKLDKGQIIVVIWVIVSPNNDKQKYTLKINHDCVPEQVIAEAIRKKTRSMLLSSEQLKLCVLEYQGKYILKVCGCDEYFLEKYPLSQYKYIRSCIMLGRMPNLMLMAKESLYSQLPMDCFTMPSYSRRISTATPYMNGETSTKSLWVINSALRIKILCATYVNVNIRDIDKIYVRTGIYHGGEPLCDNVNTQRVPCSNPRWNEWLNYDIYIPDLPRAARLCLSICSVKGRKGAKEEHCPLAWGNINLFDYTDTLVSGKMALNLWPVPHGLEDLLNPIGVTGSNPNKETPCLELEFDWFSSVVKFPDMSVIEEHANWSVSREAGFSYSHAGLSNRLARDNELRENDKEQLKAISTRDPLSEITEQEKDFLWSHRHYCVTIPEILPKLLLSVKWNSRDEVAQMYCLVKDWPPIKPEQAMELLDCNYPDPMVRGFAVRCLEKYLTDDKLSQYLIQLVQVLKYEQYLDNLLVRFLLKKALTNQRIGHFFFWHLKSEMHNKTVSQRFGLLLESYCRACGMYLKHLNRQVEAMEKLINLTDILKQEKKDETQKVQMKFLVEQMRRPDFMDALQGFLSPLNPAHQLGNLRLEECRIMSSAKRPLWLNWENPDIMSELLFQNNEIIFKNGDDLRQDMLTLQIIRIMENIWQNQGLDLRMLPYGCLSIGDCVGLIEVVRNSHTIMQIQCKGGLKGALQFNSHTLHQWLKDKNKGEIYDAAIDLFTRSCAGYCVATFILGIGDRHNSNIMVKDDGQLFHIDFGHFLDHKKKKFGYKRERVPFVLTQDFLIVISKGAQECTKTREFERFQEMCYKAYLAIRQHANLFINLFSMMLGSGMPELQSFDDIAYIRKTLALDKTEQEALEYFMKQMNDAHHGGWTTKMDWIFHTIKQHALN", "assay": "Inhibition of PI3Kalpha (unknown origin) using PIP2 as substrate incubated for 1 hr by ADP-Glo assay"}, "[2]": {"biological_target": "Phosphatidylinositol 4,5-bisphosphate 3-kinase catalytic subunit beta isoform (Homo sapiens, UniProt P42338)", "sequence (P42338 whole entry, canonical isoform)": "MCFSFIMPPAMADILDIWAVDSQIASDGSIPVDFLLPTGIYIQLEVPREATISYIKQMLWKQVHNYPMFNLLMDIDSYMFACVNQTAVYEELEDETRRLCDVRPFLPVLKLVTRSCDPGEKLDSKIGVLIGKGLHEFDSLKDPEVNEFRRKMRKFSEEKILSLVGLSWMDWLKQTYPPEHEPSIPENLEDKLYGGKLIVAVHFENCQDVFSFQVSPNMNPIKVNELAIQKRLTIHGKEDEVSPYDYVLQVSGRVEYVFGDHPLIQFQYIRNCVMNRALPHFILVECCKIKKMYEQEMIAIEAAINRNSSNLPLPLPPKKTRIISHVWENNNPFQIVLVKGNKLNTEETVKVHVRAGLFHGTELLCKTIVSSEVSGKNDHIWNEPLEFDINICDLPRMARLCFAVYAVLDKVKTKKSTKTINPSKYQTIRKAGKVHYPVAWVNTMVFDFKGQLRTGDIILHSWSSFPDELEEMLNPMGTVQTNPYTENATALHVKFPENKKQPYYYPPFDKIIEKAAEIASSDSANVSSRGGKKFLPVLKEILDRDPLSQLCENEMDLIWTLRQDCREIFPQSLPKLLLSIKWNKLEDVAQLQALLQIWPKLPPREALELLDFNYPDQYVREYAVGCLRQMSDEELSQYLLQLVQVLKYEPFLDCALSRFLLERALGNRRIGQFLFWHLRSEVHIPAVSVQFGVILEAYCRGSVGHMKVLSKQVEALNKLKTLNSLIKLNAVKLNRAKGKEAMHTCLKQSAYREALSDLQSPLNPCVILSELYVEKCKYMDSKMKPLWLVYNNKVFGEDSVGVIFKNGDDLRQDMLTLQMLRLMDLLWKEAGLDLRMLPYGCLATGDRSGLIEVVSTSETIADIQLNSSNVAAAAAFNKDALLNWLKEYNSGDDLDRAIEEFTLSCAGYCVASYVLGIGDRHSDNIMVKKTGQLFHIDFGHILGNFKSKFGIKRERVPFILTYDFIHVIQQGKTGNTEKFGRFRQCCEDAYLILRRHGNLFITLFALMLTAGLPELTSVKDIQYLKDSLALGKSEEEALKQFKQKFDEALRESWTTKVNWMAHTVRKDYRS", "assay": "Inhibition of PI3Kbeta (unknown origin) using PIP2 as substrate incubated for 1 hr by ADP-Glo assay"}, "[3]": {"biological_target": "Phosphatidylinositol 4,5-bisphosphate 3-kinase catalytic subunit gamma isoform (Homo sapiens, UniProt P48736)", "sequence (P48736 whole entry, canonical isoform)": "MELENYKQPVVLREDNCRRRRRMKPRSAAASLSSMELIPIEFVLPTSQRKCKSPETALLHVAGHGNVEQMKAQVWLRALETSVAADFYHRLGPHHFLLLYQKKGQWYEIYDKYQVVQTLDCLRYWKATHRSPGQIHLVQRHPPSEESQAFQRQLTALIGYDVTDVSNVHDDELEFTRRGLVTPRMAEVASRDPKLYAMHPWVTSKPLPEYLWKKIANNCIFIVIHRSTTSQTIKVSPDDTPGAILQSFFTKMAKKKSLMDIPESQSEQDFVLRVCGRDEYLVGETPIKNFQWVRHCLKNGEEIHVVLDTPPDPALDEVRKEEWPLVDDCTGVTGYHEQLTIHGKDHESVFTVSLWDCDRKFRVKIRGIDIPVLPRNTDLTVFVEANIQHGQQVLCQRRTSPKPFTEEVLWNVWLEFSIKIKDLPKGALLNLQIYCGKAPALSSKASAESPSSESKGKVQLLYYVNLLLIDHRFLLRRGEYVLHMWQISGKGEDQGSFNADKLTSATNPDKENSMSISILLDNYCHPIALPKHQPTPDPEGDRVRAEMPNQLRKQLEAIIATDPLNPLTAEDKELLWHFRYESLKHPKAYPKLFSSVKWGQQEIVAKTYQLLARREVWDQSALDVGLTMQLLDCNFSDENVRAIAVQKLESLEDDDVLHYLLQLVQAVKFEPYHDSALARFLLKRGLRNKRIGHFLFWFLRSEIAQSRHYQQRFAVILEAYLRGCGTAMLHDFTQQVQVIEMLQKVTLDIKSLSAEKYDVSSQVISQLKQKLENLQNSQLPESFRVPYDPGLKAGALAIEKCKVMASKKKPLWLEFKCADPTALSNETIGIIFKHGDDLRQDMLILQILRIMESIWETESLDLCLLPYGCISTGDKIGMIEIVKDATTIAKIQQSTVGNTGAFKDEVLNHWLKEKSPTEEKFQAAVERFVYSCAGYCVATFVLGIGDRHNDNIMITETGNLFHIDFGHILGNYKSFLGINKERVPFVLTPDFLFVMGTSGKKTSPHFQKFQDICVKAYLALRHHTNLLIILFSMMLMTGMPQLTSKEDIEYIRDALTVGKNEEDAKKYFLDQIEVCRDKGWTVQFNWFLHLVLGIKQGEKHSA", "assay": "Inhibition of PI3Kgamma (unknown origin) using PIP2 as substrate incubated for 1 hr by ADP-Glo assay"}, "[4]": {"assay": "Inhibition of mouse CD3-positive T cell proliferation pre-stimulated with anti-CD3/anti-CD28 followed by compound treatment by flow cytometry"}, "[5]": {"assay": "Inhibition of mouse CD3-positive T cell activation pre-stimulated with anti-CD3/anti-CD28 followed by compound treatment by flow cytometry"}},
  "data": [
    {"molecule": "C[C@H](Nc1nc(N)nc(N)c1C#N)c1cn(-c2cccnc2)c2cc(Cl)cnc12", "values": [
      {"measurement": "IC50", "setting": "[1]", "value": 7.03, "unit": "µM"},
      {"measurement": "IC50", "setting": "[2]", "value": 1.66, "unit": "µM"},
      {"measurement": "IC50", "setting": "[3]", "value": "> 10", "unit": "µM"}
    ]},
    {"molecule": "C[C@@H](Nc1nc(N)nc(N)c1C#N)c1cn(-c2cccnc2)c2cc(Cl)cnc12", "note": "(racemic)", "values": [
      {"measurement": "IC50", "setting": "[1]", "value": "> 10", "unit": "µM"},
      {"measurement": "IC50", "setting": "[2]", "value": 2.36, "unit": "µM"},
      {"measurement": "IC50", "setting": "[3]", "value": "> 10", "unit": "µM"}
    ]},
    {"molecule": "CC(Nc1nc(N)nc(N)c1C#N)c1cn(-c2cccnc2)c2cc(Cl)cnc12", "note": "(stereo unspecified)", "values": [
      {"measurement": "IC50", "setting": "[1]", "value": "> 10", "unit": "µM"},
      {"measurement": "IC50", "setting": "[2]", "value": "> 10", "unit": "µM"},
      {"measurement": "IC50", "setting": "[3]", "value": "> 10", "unit": "µM"}
    ]},
    {"molecule": "CC[C@H](Nc1ncnc2[nH]cnc12)c1nc2cccc(F)c2c(=O)n1-c1ccccc1", "note": "[IDELALISIB]", "values": [
      {"measurement": "IC50", "setting": "[4]", "value": 8.97, "unit": "µM"},
      {"measurement": "IC50", "setting": "[5]", "value": "> 10", "unit": "µM"}
    ]}
  ]
}
